Measured values taken from patent publication US3930838A, “S-benzyl-N,N-disec-butylthiocarbamate and its use as a rice field herbicide and a rice growth stimulant” (priority 1970, dated 1976).

Tests used:
rice [1] = assay: Open field test on rice, biometric controls (Example 10); assay type: in vivo, rice cv. RIBE; conditions: 36 days
Method: (§1) In the province of Novara, Italy, a test was performed outdoors in clay soil. For each treatment, a 600 m^2 plot provided with independent water feed was prepared. After soil working and leveling, the treatment was effected on Apr. 23, 1970, using formulations in emulsifiable oils of M3432 and of molinate, sprayed by means of mechanical devices. Only the plot treated with molinate was harrowed just after treatment in order to incorporate the product and to avoid any losses of same due to volatilization. Immediately afterwards, the plots were flooded to a water level of 10-12 cm.
(§2) Pre-germinated cv. RIBE rice was mechanically sowed broadcast on Apr. 25, 1970.
36 Days after the treatment, 50 rice plants were taken at random from each plot and subjected to biometric controls.

rice [2] = assay: Comparative selectivity test on rice in submerged culture, air-conditioned atmosphere (Example 7); assay type: in vivo; conditions: for Main root, average value per plant / Shoot, average value per plant / Sprouted plants: 24 days
Method: (§3) Into a set of cylindrical pots having a 200 cm^2 internal surface, sieved rice field earth in a quantity of 1 kg. per pot was introduced. After leveling and wetting with 200 cc. of water, the earth surface of the pots was uniformly sprayed with hydroacetone solutions containing, respectively, 0, 0.2, 0.3, and 0.4% active product (a.p.). 4 Ml. of the solution were sprayed onto each pot, so that the amount of active product in a set of four pots was 0, 4, 6, and 8 kg./ha., respectively. Immediately after spraying, each pot was filled with water to a level of 7 cm. over the soil surface. Thereafter, the sowing was carried out at the rate of 15 pre-germinated rice seeds per pot. Three repetitions were performed for each treatment. The pots were kept in an air-conditioned atmosphere with a daily temperature variation between 10° and 25°C and a 14 hour per day light period. After 24 days, the percentage of sprouted plants and the length of the shoot were recorded.

Rice plants = assay: Open field test on rice, periodical checks of the plots (Example 10); assay type: in vivo, rice cv. RIBE; conditions: two months
Method: as §1, §2
Periodical checks were carried out on the four plots. […]

Alisma sp. = assay: Outdoor infestation degree in rice plots (Example 15); assay type: in vivo; conditions: 36 days
Method: as §1
(§4) A clear confirmation of the efficiency of M3432 towards Echinocloa spp. was obtained outdoors, where the test was carried out under conditions which are characteristic of Italian rice growing. The experimental conditions are described in Example 10.

Echinocloa spp. [3] = assay: as above; assay type: in vivo; conditions: for Infestation degree, plants per 10 square meters: 2 months
Method: as §1, §4

Scirpus sp. = assay: as above; assay type: in vivo; conditions: 36 days
Method: as §1, §4

Echinocloa spp. [4] = assay: Pre-emergence activity on Echinocloa in flooded cultures, pots (Example 13); assay type: in vivo
Method: as §3, with “After 24 days, the percentage of sprouted plants and the length of the shoot were recorded.” left out
The same method described in Example 7 was adopted, the only variations being the doses (0, 0.5, 1, 2 and 4 kg./ha.). the type of formulation and the sowing of Echinocloa spp. (25 slightly pre-germinated seeds per pot) instead of rice.

Echinocloa crus galli = assay: Weeding activity in screening conditions (Example 12); assay type: in vivo; conditions: 25 days
Description: (§5) Two sets of small square tanks having 11 cm. sides, filled with field earth admixed with 30% of sand, were sowed at a depth of 0.5-1 cm. with the following grass species: Echinocloa crus galli, Setaria italica, Alopecurus myosiuroides, Lolium italicum, Digitaria sanguinalis, Avena fatua, Agrostis segetum, and Dactylis glomerata. After sowing, the earth surface of the tanks was uniformly sprayed with 2.4 cc./tank of hydroacetone solutions containing, respectively, 0, 0.05, 0.10, 0.20 and 0.30% of M3432 and of molinate, respectively, in order to obtain doses thereof corresponding to 0, 1, 2, 4, and 6 kg./ha., respectively.
(§6) Only one set of small tanks was covered with a 1 cm. layer of earth just after the treatment. All of the tanks were kept in an air-conditioned chamber identical with that described in Example 7, and were watered every day. 25 days after the treatment, the final results were examined, attributing to each treatment the following scale of values: […]

Dactylis glomerata = assay: as above; assay type: in vivo; conditions: 25 days
Description: as §5, §6

Setaria italica = assay: as above; assay type: in vivo; conditions: 25 days
Description: as §5, §6

[5] = Test No. 1, hydroacetone solution, 2 kg./ha., 22 days
[6] = Test No. 1, hydroacetone solution, 4 kg./ha., 22 days
[7] = Test No. 2, hydroacetone solution, 0.5 kg./ha., 21 days
[8] = Test No. 2, hydroacetone solution, 1 kg./ha., 21 days
[9] = Test No. 2, hydroacetone solution, 2 kg./ha., 21 days
[10] = Test No. 3, 50% emulsifiable oil, 2 kg./ha., 27 days
[11] = Test No. 3, 50% emulsifiable oil, 4 kg./ha., 27 days
[12] = Test No. 3, hydroacetone solution, 2 kg./ha., 27 days
[13] = Test No. 3, hydroacetone solution, 4 kg./ha., 27 days
[14] = Treated surface covered with 1 cm earth layer, 2 kg./ha.
[15] = Treated surface covered with 1 cm earth layer, 4 kg./ha.
[16] = Treated surface covered with 1 cm earth layer, 6 kg./ha.

For CCC(C)N(C(=O)SCc1ccccc1)C(C)CC (stereo not shown) [M3432, S-benzyl-N,N-disec.butylthiocarbamate], the Main root (rice [1]; 4 kg./ha.) was 9.29 cm, the “Roots, average weight per plant on dry basis” value (from here on “Roots … per plant on dry basis”) (rice [1]; 4 kg./ha.) was 2.431 g and the Secondary roots (rice [1]; 4 kg./ha.) was 9.64 no. For the same compound, the Shoot (rice [1]; 4 kg./ha.) was 29.22 cm, the “Shoot, average weight per plant on dry basis” value (shortened to “Shoot … per plant on dry basis”) (rice [1]; 4 kg./ha.) was 4.073 g and the “Total, average weight per plant on dry basis” value (“Total … per plant on dry basis” below) (rice [1]; 4 kg./ha.) was 6.504 g. The Main root (rice [1]; 6 kg./ha.) was 10.19 cm, the “Roots … per plant on dry basis” value (rice [1]; 6 kg./ha.) was 3.123 g and the Secondary roots (rice [1]; 6 kg./ha.) was 10.42 no. The Shoot (rice [1]; 6 kg./ha.) was 30.17 cm, the “Shoot … per plant on dry basis” value (rice [1]; 6 kg./ha.) was 4.209 g and the “Total … per plant on dry basis” value (rice [1]; 6 kg./ha.) was 7.341 g. For the same compound, the “Main root, average value per plant” value (rice [2]; 4 kg./ha.) was 8.3 cm, the “Shoot, average value per plant” value (rice [2]; 4 kg./ha.) was 17.8 cm and the Sprouted plants (rice [2]; 4 kg./ha.) was 60.0%. The “Main root, average value per plant” value (rice [2]; 6 kg./ha.) was 10.4 cm, the “Shoot, average value per plant” value (rice [2]; 6 kg./ha.) was 21.1 cm and the Sprouted plants (rice [2]; 6 kg./ha.) was 53.3%. For the same compound, the “Main root, average value per plant” value (rice [2]; 8 kg./ha.) was 10.1 cm, the “Shoot, average value per plant” value (rice [2]; 8 kg./ha.) was 23.9 cm and the Sprouted plants (rice [2]; 8 kg./ha.) was 77.7%. For the same compound, the Average height (Rice plants; 4 kg./ha.) was “about 60 cm”, the Average height (Rice plants; 6 kg./ha.) was “about 60 cm” and the Infestation degree (Alisma sp.; 4 kg./ha.) was “low (low = 0.5-1 plants per m^2)”. The Infestation degree (Alisma sp.; 6 kg./ha.) was “low (low = 0.5-1 plants per m^2)”, the “Infestation degree, plants per 10 square meters” value (Echinocloa spp. [3]; 4 kg./ha.) was 0.25 no and the “Infestation degree, plants per 10 square meters” value (Echinocloa spp. [3]; 6 kg./ha.) was 0.33 no. The Infestation degree (Scirpus sp.; 4 kg./ha.) was “low (low = 0.5-1 plants per m^2)”, the Infestation degree (Scirpus sp.; 6 kg./ha.) was “low (low = 0.5-1 plants per m^2)” and the Main root (Echinocloa spp. [4]; [5]) was 0 cm. The Shoot (Echinocloa spp. [4]; [5]) was 0 cm, the “Stand (Sprouted plants)” value (Echinocloa spp. [4]; [5]) was 0% and the Main root (Echinocloa spp. [4]; [6]) was 0 cm. For the same compound, the Shoot (Echinocloa spp. [4]; [6]) was 0 cm, the “Stand (Sprouted plants)” value (Echinocloa spp. [4]; [6]) was 0% and the Main root (Echinocloa spp. [4]; [7]) was 3.28 cm. For the same compound, the Shoot (Echinocloa spp. [4]; [7]) was 8.81 cm, the Stand (Echinocloa spp. [4]; [7]) was 62% and the Main root (Echinocloa spp. [4]; [8]) was 0 cm. For the same compound, the Shoot (Echinocloa spp. [4]; [8]) was 0 cm, the Stand (Echinocloa spp. [4]; [8]) was 0% and the Main root (Echinocloa spp. [4]; [9]) was 0 cm. It also gave a Shoot (Echinocloa spp. [4]; [9]) of 0 cm, a Stand (Echinocloa spp. [4]; [9]) of 0% and a Main root (Echinocloa spp. [4]; [10]) of 0 cm. The Shoot (Echinocloa spp. [4]; [10]) was 0 cm, the Stand (Echinocloa spp. [4]; [10]) was 0% and the Main root (Echinocloa spp. [4]; [11]) was 0 cm. It also gave a Shoot (Echinocloa spp. [4]; [11]) of 0 cm, a Stand (Echinocloa spp. [4]; [11]) of 0% and a Main root (Echinocloa spp. [4]; [12]) of 0 cm. It also gave a Shoot (Echinocloa spp. [4]; [12]) of 0 cm, a Stand (Echinocloa spp. [4]; [12]) of 0% and a Main root (Echinocloa spp. [4]; [13]) of 0 cm. The Shoot (Echinocloa spp. [4]; [13]) was 0 cm, the Stand (Echinocloa spp. [4]; [13]) was 0% and the Weeding activity (Echinocloa crus galli; Surface, 1 kg./ha.) was 3. The Weeding activity (Echinocloa crus galli; Surface, 2 kg./ha.) was 3/4, the Weeding activity (Echinocloa crus galli; Surface, 4 kg./ha.) was 4/3 and the Weeding activity (Echinocloa crus galli; Surface, 6 kg./ha.) was 4. For the same compound, the Weeding activity (Echinocloa crus galli; [14]) was 4/3, the Weeding activity (Echinocloa crus galli; [15]) was 4 and the Weeding activity (Echinocloa crus galli; [16]) was 4. For the same compound, the Weeding activity (Dactylis glomerata; Surface, 1 kg./ha.) was 3/4, the Weeding activity (Dactylis glomerata; Surface, 2 kg./ha.) was 4 and the Weeding activity (Dactylis glomerata; Surface, 4 kg./ha.) was 4/3. It also gave a Weeding activity (Dactylis glomerata; Surface, 6 kg./ha.) of 4, a Weeding activity (Dactylis glomerata; [14]) of 4 and a Weeding activity (Dactylis glomerata; [15]) of 4. For the same compound, the Weeding activity (Dactylis glomerata; [16]) was 4, the Weeding activity (Setaria italica; Surface, 1 kg./ha.) was 3 and the Weeding activity (Setaria italica; Surface, 2 kg./ha.) was 3. For the same compound, the Weeding activity (Setaria italica; Surface, 4 kg./ha.) was 4/3, the Weeding activity (Setaria italica; Surface, 6 kg./ha.) was 4/3 and the Weeding activity (Setaria italica; [14]) was 3/4. For the same compound, the Weeding activity (Setaria italica; [15]) was 4/3 and the Weeding activity (Setaria italica; [16]) was 4.
CCSC(=O)N1CCCCCC1 [Molinate, ethyl-1-hexamethylene-imino-carbothiolate, reference compound] was tested, and the Main root (rice [1]; 4 kg./ha.) was 7.67 cm, the “Roots … per plant on dry basis” value (rice [1]; 4 kg./ha.) was 1.866 g and the Secondary roots (rice [1]; 4 kg./ha.) was 9.06 no. For the same compound, the Shoot (rice [1]; 4 kg./ha.) was 25.72 cm, the “Shoot … per plant on dry basis” value (rice [1]; 4 kg./ha.) was 3.257 g and the “Total … per plant on dry basis” value (rice [1]; 4 kg./ha.) was 5.123 g. The “Main root, average value per plant” value (rice [2]; 4 kg./ha.) was 7.4 cm, the “Shoot, average value per plant” value (rice [2]; 4 kg./ha.) was 15.3 cm and the Sprouted plants (rice [2]; 4 kg./ha.) was 42.3%. For the same compound, the “Main root, average value per plant” value (rice [2]; 6 kg./ha.) was 3.9 cm, the “Shoot, average value per plant” value (rice [2]; 6 kg./ha.) was 8.2 cm and the Sprouted plants (rice [2]; 6 kg./ha.) was 20.0%. The “Main root, average value per plant” value (rice [2]; 8 kg./ha.) was 4.6 cm, the “Shoot, average value per plant” value (rice [2]; 8 kg./ha.) was 6.6 cm and the Sprouted plants (rice [2]; 8 kg./ha.) was 11.0%. The “Margin of safety on rice” value (rice [2]; rice growth unfavorably affected even at 6 kg./ha.) was “narrow margin of safety”, the Average height (Rice plants; 4 kg./ha.) was 35-45 cm and the Rice plants appearance (Rice plants; 4 kg./ha.) was “normal”. For the same compound, the “Stand (number of tillers per unit of area)” value (Rice plants; 4 kg./ha.) was “normal”, the Infestation degree (Alisma sp.; 4 kg./ha.) was “moderate (moderate = 1 - 4 plants per m^2)” and the “Infestation degree, plants per 10 square meters” value (Echinocloa spp. [3]; 4 kg./ha.) was 1-2 no. For the same compound, the Infestation degree (Echinocloa spp. [3]; 4 kg./ha., 36 days) was “almost nil (almost nil = 0.1 plants per m^2)”, the Infestation degree (Scirpus sp.; 4 kg./ha.) was “moderate (moderate = 1 - 4 plants per m^2)” and the Main root (Echinocloa spp. [4]; [6]) was 0 cm. The Shoot (Echinocloa spp. [4]; [6]) was 0 cm, the “Stand (Sprouted plants)” value (Echinocloa spp. [4]; [6]) was 0% and the Weeding activity (Echinocloa crus galli; Surface, 2 kg./ha.) was 2. The Weeding activity (Echinocloa crus galli; Surface, 4 kg./ha.) was 1/2, the Weeding activity (Echinocloa crus galli; Surface, 6 kg./ha.) was 1/2 and the Weeding activity (Echinocloa crus galli; [14]) was 3. The Weeding activity (Echinocloa crus galli; [15]) was 3, the Weeding activity (Echinocloa crus galli; [16]) was 3/4 and the Weeding activity (Dactylis glomerata; Surface, 2 kg./ha.) was 1/2. For the same compound, the Weeding activity (Dactylis glomerata; Surface, 4 kg./ha.) was 1/2, the Weeding activity (Dactylis glomerata; Surface, 6 kg./ha.) was 3 and the Weeding activity (Dactylis glomerata; [14]) was 3. The Weeding activity (Dactylis glomerata; [15]) was 4/3, the Weeding activity (Dactylis glomerata; [16]) was 4/3 and the Weeding activity (Setaria italica; Surface, 2 kg./ha.) was 0/1. For the same compound, the Weeding activity (Setaria italica; Surface, 4 kg./ha.) was 0/1, the Weeding activity (Setaria italica; Surface, 6 kg./ha.) was 0/1 and the Weeding activity (Setaria italica; [14]) was 3. It also gave a Weeding activity (Setaria italica; [15]) of 3 and a Weeding activity (Setaria italica; [16]) of 3.
